Target: T1, human renin (Homo sapiens, UniProt P00797)
T1 construct: A human plasma pool is used as the source of both the substrate (angiotensinogen) and the enzyme (renin); from tissue; host or cells: human plasma pool
T1 sequence (P00797 67-406): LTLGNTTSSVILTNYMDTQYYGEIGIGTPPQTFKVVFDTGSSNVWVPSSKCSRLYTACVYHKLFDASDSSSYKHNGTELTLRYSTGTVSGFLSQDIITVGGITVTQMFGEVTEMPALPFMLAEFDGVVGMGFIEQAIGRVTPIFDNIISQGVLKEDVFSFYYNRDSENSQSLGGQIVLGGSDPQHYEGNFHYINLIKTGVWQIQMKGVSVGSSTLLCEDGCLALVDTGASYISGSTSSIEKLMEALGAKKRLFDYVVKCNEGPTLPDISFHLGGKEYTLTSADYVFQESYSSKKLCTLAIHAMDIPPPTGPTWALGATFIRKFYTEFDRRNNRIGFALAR
Assay: Plasma renin assay (inhibition of human renin, angiotensin I by RIA)
Format: biochemical
Conditions: human plasma pool, pH 6.0, 2 h incubation at 37°
Method: The assay is performed as follows: The test compound (i.e. the inhibitor) is dissolved in dimethylsulfoxide (1 mM stock solution) and diluted with an aqueous buffer solution of 270 mM 2-(N-morpholino)ethanesulfonic acid and 1% human serum albumin (pH 5.85, also containing dimercaprol and 8-hydroxyquinoline sulfate in accordance with the instructions of the RIA kit noted below) to give an assay mixture in which the final dimethylsulfoxide content is 1% (v/v).
A human plasma pool is used as the source of both the substrate (angiotensinogen) and the enzyme (renin). The reaction is initiated by the addition of 50 μL of human plasma pool to 50 μL of various concentrations of inhibitor in the 1% dimethylsulfoxide assay buffer. The plasma renin activity is measured by the amount of angiotensin I generated at pH 6.0 following a 2 h incubation at 37°.
Quantitation of angiotensin I is performed by radioimmunoassay (RIA kit from New England Nuclear-Dupont, Mississauga, ON, Canada). The enzymatic activity of renin is expressed in ng of angiotensin I generated (/mL/2 h). The extent of inhibition of the reaction is determined from the amount of angiotensin I generated in reference to a control prepared without inhibitor. Nonlinear regression analysis is used to calculate the IC50 values, i.e. the molar concentration of the test compound required to cause a 50% inhibition of the enzyme activity.

Compound | IC50 [nM]
CC(C)C[C@H](O)[C@H](O)[C@H](CC1CCCCC1)NC(=O)[C@@H](CC(=O)N(CC(=O)N(C)C)C[C@@H](C)c1ccccc1)CC1CC1 [Compound 20, N^4-[2-(dimethylamino)-2-oxoethyl]-N^4-(2(S)-phenylpropyl]-N^1-(1(S)-(cyclohexylmethyl)-2(R),3(S)-dihydroxy-5-methylhexyl]-2(R)-(cyclopropylmethyl)butanediamide] | 37
CC(C)C[C@H](O)[C@H](O)[C@H](CC1CCCCC1)NC(=O)[C@@H](CC(=O)N(CC(=O)N(C)C)CC(C)(C)c1ccccc1)CC1CC1 [Compound 21, N^4-[2-(dimethylamino)-2-oxoethyl]-N^4-(2-methyl-2-phenylpropyl)-N^1-[1(S)-(cyclohexylmethyl)-2(R),3(S)-dihydroxy-5-methylhexyl]-2(R)-(cyclopropylmethyl)butanediamide] | 150
CC(C)C[C@H](O)[C@H](O)[C@H](CC1CCCCC1)NC(=O)[C@@H](CC(=O)N(CC(=O)N(C)CCc1ccccn1)[C@@H](C)c1ccccc1)CC1CC1 [Compound 22, N^4-[1(S)-phenylethyl]-N^4 -{2-{methyl[2-(2-pyridinyl)ethyl]-amino}-2-oxoethyl}-N^1-(1(S)-(cyclohexylmethyl)-2(R),3(S)-dihydroxy-5-methylhexyl]-2(R)-(cyclopropylmethyl)-butanediamide] | 20
CC(C)C[C@H](O)[C@H](O)[C@H](CC1CCCCC1)NC(=O)[C@@H](CC(=O)N(CC(=O)N(C)CCN(C)C)[C@@H](C)c1ccccc1)CC1CC1 [Compound 23, N^4 -{2-{[2-(dimethylamino)ethyl]methylamino}-2-oxoethyl}-N^4-[1(S)-phenylethyl]-N^1-[1(S)-(cyclohexylmethyl)-2(R),3(S)-dihydroxy-5-methylhexyl]-2(R)-(cyclopropylmethyl)-butanediamide] | 26
CCN(CC)CCN(C)C(=O)CN(C(=O)C[C@@H](CC1CC1)C(=O)N[C@@H](CC1CCCCC1)[C@@H](O)[C@@H](O)CC(C)C)[C@@H](C)c1ccccc1 [Compound 24, N^4 -{2-{[2-(diethylamino)ethyl]methylamino}-2-oxoethyl}-N^4-[1(S)-phenylethyl]-N^1-[1(S)-(cyclohexylmethyl)-2(R),3(S)-dihydroxy-5-methylhexyl]-2(R)-(cyclopropylmethyl)-butanediamide] | 61
CCC[C@H](CC(=O)N(CC(=O)N(C)C)[C@@H](C)c1ccccc1)C(=O)N[C@@H](CC1CCCCC1)[C@@H](O)[C@@H](O)CC(C)C [Compound 25, N^4-[2-(dimethylamino)-2-oxoethyl]-N^4-[1(S)-phenylethyl]-N^1-[1(S)-(cyclohexylmethyl)-2(R),3(S)-dihydroxy-5-methylhexyl]-2(R)-propylbutanediamide] | 34
CCC[C@H](CC(=O)N(CC(=O)N(C)CCc1ccccn1)Cc1ccccc1)C(=O)N[C@@H](CC1CCCCC1)[C@@H](O)[C@@H](O)CC(C)C [Compound 26, N^4-benzyl-N^4 -{2-{methyl[2-(2-pyridinyl)ethyl]amino}-2-oxoethyl}-N^1-[1(S)-(cyclohexylmethyl)-2(R),3(S)-dihydroxy-5-methylhexyl]-2(R)-propylbutanediamide] | 29
CC(C)C[C@H](O)[C@H](O)[C@H](CC1CCCCC1)NC(=O)[C@@H](CC(=O)N(CC(=O)N(C)C)[C@@H](C)c1ccccc1)Cc1c[nH]cn1 [Compound 27, N^4-[2-(dimethylamino)-2-oxoethyl]-N^4-(1(S)-phenylethyl]-N^1-[1(S)-(cyclohexylmethyl)-2(R),3(S)-dihydroxy-5-methylhexyl]-2(R)-(1H-imidazol-4-ylmethyl)butanediamide] | 6
CC(C)C[C@H](O)[C@H](O)[C@H](CC1CCCCC1)NC(=O)[C@@H](CC(=O)N(CC(=O)N(C)C)[C@@H](C)c1ccccc1)Cc1csc(N)n1 [Compound 28, N^4-[2-(dimethylamino)-2-oxoethyl]-N^4-[1(S)-phenylethyl]-N^1-[1(S)-(cyclohexylmethyl)-2(R),3(S)-dihydroxy-5-methylhexyl]-2(R)-[(2-amino-4-thiazolyl)methyl]butanediamide] | 1.3
CC(C)C[C@H](O)[C@H](O)[C@H](CC1CCCCC1)NC(=O)[C@@H](CC(=O)N(CC(=O)N(C)CCc1ccncc1)Cc1ccccc1)CC1CC1 [Compound 29, N^4-benzyl-N^4 -{2-{methyl[2-(4-pyridinyl)ethyl]amino}-2-oxoethyl}-N^1-[1(S)-(cyclohexylmethyl)-2(R)3(S)-dihydroxy-5-methylhexyl]-2(R)-(cyclopropylmethyl)butanediamide] | 68
CC(C)C[C@H](O)[C@H](O)[C@H](CC1CCCCC1)NC(=O)[C@@H](CC(=O)N(CC(=O)N(C)C)[C@@H](C)c1ccccc1)Cc1cscn1 [Compound 30, N^4-[2-(dimethylamino)-2-oxoethyl]-N^4-[1(S)-phenylethyl]-N^1-[1(S)-(cyclohexylmethyl)-2(R),3(S)-dihydroxy-5-methylhexyl]-2(R)-(4-thiazolylmethyl)butanediamide] | 2.5
CC(C)C[C@H](O)[C@H](O)[C@H](CC1CCCCC1)NC(=O)[C@@H](CC(=O)N(CC(=O)N(C)C)CC1CCCCC1)CC1CC1 [Compound 31, N^4-(cyclohexylmethyl)-N^4-(2-(dimethylamino)-2-oxoethyl]-N^1-[1(S)-(cyclohexylmethyl)-2(R),3(S)-dihydroxy-5-methylhexyl]-2(R)-(cyclopropylmethyl)butanediamide] | 13
CC(C)C[C@H](O)[C@H](O)[C@H](CC1CCCCC1)NC(=O)[C@@H](CC(=O)N(CC(=O)N(C)C)[C@@H](C)c1ccccc1)Cc1cccs1 [Compound 32, N^4-(2-(dimethylamino)-2-oxoethyl]-N^4-(1(S)-phenylethyl]-N^1-[1(S)-(cyclohexylmethyl)-2(R),3(S)-dihydroxy-5-methylhexyl]-2(S)-(2-thienylmethyl)butanediamide] | 13
CC(C)C[C@H](O)[C@H](O)[C@H](CC1CCCCC1)NC(=O)[C@@H](CC(=O)N(CC(=O)N1CCOCC1)[C@@H](C)c1ccccc1)CC1CC1 [Compound 33, N^4-[1(S)-phenylethyl-N^4-(2-morpholino-2-oxoethyl)-N^1-1(S)-(cyclohexylmethyl)-2(R),3(S)-dihydroxy-5-methylhexyl]-2(R)-(cyclopropylmethyl)butanediamide] | 120
CC(C)C[C@H](O)[C@H](O)[C@H](CC1CCCCC1)NC(=O)[C@@H](CC(=O)N(CC(=O)N(C)CCc1ccccn1)Cc1ccccc1)Cc1cccs1 [Compound 34, N^4-benzyl-N^4 -{2-{methyl[2-(2-pyridinyl)ethyl]amino}-2-oxoethyl}-N^1-[1(S)-(cyclohexylmethyl)-2(R),3(S)-dihydroxy-5-methylhexyl]-2(S)-(2-thienylmethyl)butanediamide] | 13
CC(C)C[C@H](O)[C@H](O)[C@H](CC1CCCCC1)NC(=O)[C@@H](CC(=O)N(CC(=O)N1CCOCC1)CC1CCCCC1)CC1CC1 [Compound 35, N^4-(cyclohexylmethyl)-N^4-(2-morpholino-2-oxoethyl)-N^1-[1(S)-(cyclohexylmethyl)-2(R),3(S)-dihydroxy-5-methylhexyl]-2(R)-(cyclopropylmethyl)butanediamide] | 8
CC(C)C[C@H](O)[C@H](O)[C@H](CC1CCCCC1)NC(=O)[C@@H](CC(=O)N(CC(=O)N(C)C)CC1CCCCC1)Cc1cscn1 [Compound 36, N^4-(cyclohexylmethyl)-N^4-[2-(dimethylamino)-2-oxoethyl]-N^1-[1(S)-(cyclohexylmethyl)-2(R),3(S)-dihydroxy-5-methylhexyl]-2(R)-(4-thiazolylmethyl)butanediamide] | 1.5
CC(C)C[C@H](O)[C@H](O)[C@H](CC1CCCCC1)NC(=O)[C@@H](CC(=O)N(CC(=O)N(C)C)CC1CCCCC1)Cc1nccs1 [Compound 37, N^4-(cyclohexylmethyl)-N^4-[2-(dimethylamino)-2-oxoethyl]-N^1-[1(S)-(cyclohexylmethyl)-2(R),3(S)-dihydroxy-5-methylhexyl]-2(S)-(2-Thiazolylmethyl)butanediamide] | 1.6
CC(C)C[C@H](O)[C@H](O)[C@H](CC1CCCCC1)NC(=O)[C@@H](CC(=O)N(CC(=O)N(C)C)[C@@H](C)C1CCCCC1)CC1CC1 [Compound 38, N^4-(1(S)-cyclohexylethyl)-N^4-[2-(dimethylamino)-2-oxoethyl]-N^1-[1(S)-(cyclohexylmethyl)-2(R),3(S)-dihydroxy-5-methylhexyl]-2(R)-(cyclopropylmethyl)butanediamide] | 8.3
CC(C)C[C@H](O)[C@H](O)[C@H](CC1CCCCC1)NC(=O)[C@@H](CC(=O)N(CC(=O)N1CCOCC1)CC1CCCCC1)Cc1nccs1 [Compound 39, N^4-(cyclohexylmethyl)-N^4-(2-morpholino-2-oxoethyl)-N^1-[1(S)-(cyclohexylmethyl)-2(R),3(S)-dihydroxy-5-methylhexyl]-2(S)-(2-thiazolylmethyl)butanediamide] | 1.6
